US20250282799A1, “SUBSTITUTED PYRIDO[4,3-d]PYRIMIDINES AS KRAS MODULATORS” (Alterome Therapeutics, Inc., priority 2023, published 2025)

The compounds below were run on KRAS G12V dependent lung adenocarcinoma cell line, NCI-H441 (assay: Cellular pERK (Thr202/Tyr204) FRET/HTRF assay). Conditions: Homo sapiens, NCI-H441, cellular pERK (Thr202/Tyr204) HTRF, NCI-H441 cells.
Assay type: cell-based
Outline: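 NCI-H441, overnight plating → cpd 1 hr, 37 °C/5% CO2; DMSO neg ctrl. Lyse (phosphatase inhibitors), add donor/acceptor Abs, RT incubation, HTRF read. IC50 by curve fit.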

**Q.** For `[2H]c1cc(F)c(C#C)c2c(-c3ncc4c(N5CCOC[C@H]6[C@H](F)[C@H]65)nc(OC([2H])([2H])[C@@]56CCCN5C[C@H](F)C6)nc4c3F)cc(N)cc12` [Example 264, 5-ethynyl-6-fluoro-4-(8-fluoro-4-((1S,7S,8S)-8-fluoro-5-oxa-2-azabicyclo[5.1.0]octan-2-yl)-2-(((2R,7aS)-2-fluorotetrahydro-1H-pyrrolizin-7a(5H)-yl)methoxy-d2)pyrido[4,3-d]pyrimidin-7-yl)naphthalen-8-d-2-amine], which IC50 is on record?
**A.** < 50 nM

**Q.** With `C#Cc1c(F)ccc2cc(N)cc(-c3ncc4c(N5CCOC[C@H]6[C@H](F)[C@H]65)nc(OC[C@@]56CCCN5CC(=C)C6)nc4c3C)c12` [Example 425, 5-ethynyl-6-fluoro-4-(4-((1S,7S,8S)-8-fluoro-5-oxa-2-azabicyclo[5.1.0]octan-2-yl)-8-methyl-2-(((S)-2-methylenetetrahydro-1H-pyrrolizin-7a(5H)-yl)methoxy)pyrido[4,3-d]pyrimidin-7-yl)naphthalen-2-amine] as the compound, how does the IC50 read?
**A.** < 50 nM

**Q.** `[2H]C([2H])([2H])Oc1c(F)cc(F)c2cc(N)cc(-c3ncc4c(N5CCOC[C@H]6[C@H](F)[C@H]65)nc(OC[C@@]56CCCN5CC(=C)C6)nc4c3F)c12` [Example 192, 6,8-difluoro-4-(8-fluoro-4-((1S,7S,8S)-8-fluoro-5-oxa-2-azabicyclo[5.1.0]octan-2-yl)-2-(((S)-2-methylenetetrahydro-1H-pyrrolizin-7a(5H)-yl)methoxy)pyrido[4,3-d]pyrimidin-7-yl)-5-(methoxy-d3)naphthalen-2-amine] was tested. Which IC50 did it give?
**A.** < 50 nM

**Q.** How did the IC50 turn out when `[2H]C([2H])(Oc1nc(N2CCCC[C@H]3[C@H](F)[C@H]32)c2cnc(-c3cc(N)cc4ccc(Cl)c(C#C)c34)c(F)c2n1)[C@@]12CCCN1[C@H](C)[C@H](F)C2` [Example 416, 6-Chloro-5-ethynyl-4-(8-fluoro-2-(((2R,3R,7aS)-2-fluoro-3-methyltetrahydro-1H-pyrrolizin-7a(5H)-yl)methoxy-d2)-4-((1S,7R,8S)-8-fluoro-2-azabicyclo[5.1.0]octan-2-yl)pyrido[4,3-d]pyrimidin-7-yl)naphthalen-2-amine] was run?
**A.** < 50 nM

**Q.** With `C#Cc1c(C(F)(F)F)ccc2cccc(-c3ncc4c(N5CCOC[C@H]6[C@H](F)[C@H]65)nc(OC[C@]56C[C@@H](F)CN5C[C@@H](CN)C6)nc4c3F)c12` [Example 336, ((2R,6R,7aS)-7a-(((7-(8-ethynyl-7-(trifluoromethyl)naphthalen-1-yl)-8-fluoro-4-((1S,7S,8S)-8-fluoro-5-oxa-2-azabicyclo[5.1.0]octan-2-yl)pyrido[4,3-d]pyrimidin-2-yl)oxy)methyl)-6-fluorohexahydro-1H-pyrrolizin-2-yl)methanamine] as the compound, how does the IC50 read?
**A.** 500 to 10000 nM

**Q.** For `C#Cc1c(F)ccc2cc(N)cc(-c3ncc4c(N5CCOC[C@H]6[C@H](F)[C@H]65)nc(OC[C@@]56CCCN5C/C(=C/F)C6)nc4c3F)c12` [Example 161, 5-Ethynyl-6-fluoro-4-(8-fluoro-4-((1S,7S,8S)-8-fluoro-5-oxa-2-azabicyclo[5.1.0]octan-2-yl)-2-(((S,E)-2-(fluoromethylene)tetrahydro-1H-pyrrolizin-7a(5H)-yl)methoxy)pyrido[4,3-d]pyrimidin-7-yl)naphthalen-2-amine], which IC50 is on record?
**A.** < 50 nM

**Q.** With `[2H]C([2H])(Oc1nc(N2CCOC[C@H]3[C@H](F)[C@H]32)c2cnc(-c3cc(N)c(F)cc3C(F)(F)F)c(F)c2n1)[C@@]12CCCN1C[C@H](F)C2` [Example 299, 2-fluoro-5-(8-fluoro-4-((1S,7S,8S)-8-fluoro-5-oxa-2-azabicyclo[5.1.0]octan-2-yl)-2-(((2R,7aS)-2-fluorotetrahydro-1H-pyrrolizin-7a(5H)-yl)methoxy-d2)pyrido[4,3-d]pyrimidin-7-yl)-4-(trifluoromethyl)aniline] as the compound, how does the IC50 read?
**A.** 50 to 500 nM

**Q.** `C#Cc1c(F)ccc2cccc(-c3ncc4c(N5CCOC[C@H]6[C@H](F)[C@H]65)nc(OC[C@@]56CCCN5CC(=C)C6)nc4c3F)c12` [Example 143, (1S,7S,8S)-2-(7-(8-ethynyl-7-fluoronaphthalen-1-yl)-8-fluoro-2-(((S)-2-methylenetetrahydro-1H-pyrrolizin-7a(5H)-yl)methoxy)pyrido[4,3-d]pyrimidin-4-yl)-8-fluoro-5-oxa-2-azabicyclo[5.1.0]octane] was tested. Which IC50 did it give?
**A.** < 50 nM

**Q.** How did the IC50 turn out when `[2H]C([2H])(Oc1nc(N2CCC(=O)C[C@@H]3[C@H](F)[C@@H]32)c2cnc(-c3cc(N)cc4cc(F)c(F)c(C#C)c34)c(F)c2n1)[C@@]12CCCN1C[C@H](F)C2` [Example 194, (1R,7S,8S)-2-(7-(3-amino-8-ethynyl-6,7-difluoronaphthalen-1-yl)-8-fluoro-2-(((2R,7aS)-2-fluorotetrahydro-1H-pyrrolizin-7a(5H)-yl)methoxy-d2)pyrido[4,3-d]pyrimidin-4-yl)-8-fluoro-2-azabicyclo[5.1.0]octan-5-one] was run?
**A.** 50 to 500 nM

**Q.** Which IC50 does the source give for `[2H]C([2H])(F)Oc1c(F)ccc2cc(N)cc(-c3ncc4c(N5CCOC[C@H]6[C@H](F)[C@H]65)nc(OC[C@]56CC7(CC7)CN5CCC65CC5)nc4c3F)c12` [Example 228, 4-(2-(((R)-dihydro-5′H-dispiro[cyclopropane-1,1′-pyrrolizine-6′,1″- cyclopropan]-7a′(7′H)-yl)methoxy)-8-fluoro-4-((1S,7S,8S)-8-fluoro-5-oxa-2-azabicyclo[5.1.0]octan-2-yl)pyrido[4,3-d]pyrimidin-7-yl)-6-fluoro-5-(fluoromethoxy-d2)naphthalen-2-amine] here?
**A.** < 50 nM

**Q.** How did the IC50 turn out when `C#Cc1cccc2cc(N)cc(-c3ncc4c(N5CCOC[C@H]6[C@H](F)[C@H]65)nc(OC[C@@H]5CCCN5C)nc4c3F)c12` [Example 297, 5-ethynyl-4-(8-fluoro-4-((1S,7S,8S)-8-fluoro-5-oxa-2-azabicyclo[5.1.0]octan-2-yl)-2-(((S)-1-methylpyrrolidin-2-yl)methoxy)pyrido[4,3-d]pyrimidin-7-yl)naphthalen-2-amine] was run?
**A.** < 50 nM

**Q.** `Cc1c(F)c(N)cc(-c2ncc3c(N4CCCC[C@@H]5[C@@H](F)[C@@H]54)nc(OC[C@@]45CCCN4CC(=C(F)F)C5)nc3c2F)c1C(F)(F)F` [Example 395, 5-(2-(((S)-2-(difluoromethylene)tetrahydro-1H-pyrrolizin-7a(5H)-yl)methoxy)-8-fluoro-4-((1R,7S,8R)-8-fluoro-2-azabicyclo[5.1.0]octan-2-yl)pyrido[4,3-d]pyrimidin-7-yl)-2-fluoro-3-methyl-4-(trifluoromethyl)aniline] was tested. Which IC50 did it give?
**A.** 500 to 10000 nM

Same assay, conditions: Homo sapiens, NCI-H441, cellular pERK HTRF, NCI-H441 (KRAS G12V) cells

**Q.** `[2H]C([2H])(Oc1nc(N2CCOC[C@H]3[C@H](F)[C@H]32)c2cnc(-c3cc(N)cc4ccc(F)c(C#C)c34)c(CC)c2n1)[C@@]12CCCN1C[C@H](F)C2` [Example 456, 4-(8-Ethyl-4-((1S,7S,8S)-8-fluoro-5-oxa-2-azabicyclo[5.1.0]octan-2-yl)-2-(((2R,7aS)-2-fluorotetrahydro-1H-pyrrolizin-7a(5H)-yl)methoxy-d2)pyrido[4,3-d]pyrimidin-7-yl)-5-ethynyl-6-fluoronaphthalen-2-amine] was tested. Which IC50 did it give?
**A.** < 50 nM

Same assay, conditions: Homo sapiens, NCI-H441, pERK HTRF, NCI-H441 cells (KRAS G12V)

**Q.** How did the IC50 turn out when `[2H]C([2H])(Oc1nc(N2CCCC[C@H]3[C@H](F)[C@H]32)c2cnc(-c3cncc4ccc(F)c(Cl)c34)c(F)c2n1)[C@@]12CCCN1C[C@H](F)C2` [Example 85, 7-(5-Chloro-6-fluoroisoquinolin-4-yl)-8-fluoro-4-((1S,7R,8S)-8-fluoro-2-azabicyclo[5.1.0]octan-2-yl)-2-(((2R,7aS)-2-fluorotetrahydro-1H-pyrrolizin-7a(5H)-yl)methoxy-d2)pyrido[4,3-d]pyrimidine] was run?
**A.** 50 to 500 nM

**Q.** Which IC50 does the source give for `[2H]C([2H])([2H])Oc1c(C#N)c(F)cc2cc(N)cc(-c3ncc4c(N5CCCC[C@H]6[C@H](F)[C@H]65)nc(OC([2H])([2H])[C@@]56CCCN5C[C@H](F)C6)nc4c3F)c12` [Example 50, 6-Amino-3-fluoro-8-(8-fluoro-4-((1S,7R,8S)-8-fluoro-2-azabicyclo[5.1.0]octan-2-yl)-2-(((2R,7aS)-2-fluorotetrahydro-1H-pyrrolizin-7a(5H)-yl)methoxy-d2)pyrido[4,3-d]pyrimidin-7-yl)-1-(methoxy-d3)-2-naphthonitrile] here?
**A.** < 50 nM

**Q.** With `[2H]C([2H])(Oc1nc(N2CCCO[C@H]3C[C@H]32)c2c(OC)nc(-c3cc(O)cc4ccc(F)c(C#C)c34)c(F)c2n1)[C@@]12CCCN1C[C@H](F)C2` [Example 36, 4-(4-((1S,7R)-2-Oxa-6-azabicyclo[5.1.0]octan-6-yl)-8-fluoro-2-(((2R,7aS)-2-fluorotetrahydro-1H-pyrrolizin-7a(5H)-yl)methoxy-d2)-5-methoxypyrido[4,3-d]pyrimidin-7-yl)-5-ethynyl-6-fluoronaphthalen-2-ol] as the compound, how does the IC50 read?
**A.** < 50 nM

**Q.** For `[2H]C([2H])(F)Oc1c(F)ccc2cccc(-c3ncc4c(N5CCCC[C@H]6[C@H](F)[C@H]65)nc(OC([2H])([2H])[C@@]56CCCN5C[C@H](F)C6)nc4c3F)c12` [Example 72, 8-Fluoro-7-(7-fluoro-8-(fluoromethoxy-d2)naphthalen-1-yl)-4-((1S,7R,8S)-8-fluoro-2-azabicyclo[5.1.0]octan-2-yl)-2-(((2R,7aS)-2-fluorotetrahydro-1H-pyrrolizin-7a(5H)-yl)methoxy-d2)pyrido[4,3-d]pyrimidine], which IC50 is on record?
**A.** < 50 nM

Same assay, conditions: cellular pERK (Thr202/Tyr204) HTRF, NCI-H441 cells

**Q.** With `[2H]C([2H])(Oc1nc(N2CCOC[C@H]3[C@H](F)[C@H]32)c2cc(C#N)c(-c3cc(N)cc4ccc(F)c(C#C)c34)c(F)c2n1)[C@@]12CCCN1C[C@H](F)C2` [Example 353, 7-(3-Amino-8-ethynyl-7-fluoronaphthalen-1-yl)-8-fluoro-4-((1S,7S,8S)-8-fluoro-5-oxa-2-azabicyclo[5.1.0]octan-2-yl)-2-(((2R,7aS)-2-fluorotetrahydro-1H-pyrrolizin-7a(5H)-yl)methoxy-d2)quinazoline-6-carbonitrile] as the compound, how does the IC50 read?
**A.** < 50 nM
